Experimental data reported in patent US5635495A, “Pyrimidine bisphosphonate esters and (alkoxymethylphosphinyl)alkyl phosphonic acids as anti-inflammatories” (The Upjohn Company, priority 1995, dated 1997).

Legend:
[1] = system: mBSA-induced DTH granuloma (DTH GRA) lesion; experiment: Delayed Type Hypersensitivity Granuloma Assay (DTH GRA) model for inflammation; type: in vivo, mouse; conditions: for % Inhibition Dry Weight: granuloma dry weight; for % Inhibition Dry Weight / % Inhibition Wet Weight: excised after nine days; for % Inhibition Wet Weight: granuloma wet weight
Description: Compounds of Formula 3 and a compound of Formula 2 have been tested in a Delayed Type Hypersensitivity Granuloma Assay (DTH GRA) model for inflammation. This assay is described by Dunn, C. J. et al., "Development of a delayed-type hypersensitivity granuloma model in the mouse for the study of chronic immune-mediated inflammatory disease," Agents and Actions, 27, 3/4 (1989) and "Murine Delayed-Type Hypersensitivity Granuloma," Int. J. Immunopharmc., 12, 8, 899-904 (1990).
Briefly, mBSA-sensitized mice have a DTH granuloma (DTH GRA) lesion induced by subcutaneously implanting a mBSA-soaked filter which is excised after nine days. Compounds are administered to the mice to determine their effect on the lesions. The results are recorded as percent inhibition. […] Inhibition of 10 to 20% is considered to indicate anti-granuloma activity. Greater than 30% inhibition is good activity.
The compound of Formula 2 tested was 1-((ethoxy-methylphosphinyl))-4-(3-methyl-6-phenyl-4(3H)-pyrimidinone-2-yl)-butane phosphonic acid diethyl ester, Example 16 and the DTH GRA data obtained for this compound was 44.4%.

calcium channel = experiment: in vitro model which identifies calcium channel blocking activity (KCl-induced calcium influx, INDO-1, human dermal fibroblasts); type: cell-based; conditions: 40 mM KCl, human dermal fibroblasts CRL 1445
Protocol: These compounds were also tested in an in vitro model which identifies calcium channel blocking activity. In this test, adherent human dermal fibroblasts (CRL 1445, ATCC, Bethesda, Md.) were allowed to attach to glass cover slips placed in 6 well culture plates. Cultures were maintained in DMEM supplemented with antibiotics and 10% fetal bovine serum (FBS) until confluent.
The fibroblasts were washed once with Dulbecco's phosphate buffered saline to remove the culture medium and FBS. The calcium probe, INDO-1 AM ([…]) in RPMI 1640 without phenol red and supplemented with 10 mM hepes and 2 mM glutamine was added to the cells for 1 hour at 37° C. The cells were washed twice with RPMI1640 and remained in this medium until calcium measurements were obtained with the Meridian ACAS digital image microscope.
The cover slip with the attached fibroblasts was placed in a chamber with 1 ml of RPMI on the microscope stage, and maintained at 37° C. The cells were exposed to a laser beam set at 310 nm and fluorescent emission was measured at 485 nm and 405 nm. Baseline resting calcium levels of the fibroblasts were measured for 30 seconds after which 40 mM KCl was added to the medium in the holder. Data was collected at 40 second intervals for a total of 300 to 400 seconds. Maximal calcium influx is usually reached within 40 seconds after the addition of KCl, and begins to slowly decrease to ~50% of the maximal level. The intracellular calcium concentrations remain elevated for at least 400 seconds.
In order to measure the inhibitory effect of the test compounds on changes in intracellular calcium, the compound was added to the cells maintained in RPMI medium for a minimum of 20 minutes before the fibroblast membranes were depolarized with KCl as outlined above. The mean increase in intracellular calcium was then compared to control fibroblasts which had been pretreated for similar lengths of time with DMSO and exposed to KCl. A calcium standard curve was obtained on the day of the experiments in order to generate absolute intracellular calcium concentrations if needed.
Two known calcium channel blockers, D600 and nifedipine were also tested to compare the relative efficacies of the "standard" compounds with the novel diphosphonates. For instance, D600 (available from the Sigma Co., St. Louis, Mo.) inhibited calcium influx into a cell by 83 to 100% at 10^-5 molar concentration. The Control is a sub-structure of Example 9 (k) not having the bisphosphonate teralkyl ester portion.

SMILES	% Inhibition Dry Weight ([1]; 10 mg/kg PO) [%]	% Inhibition Wet Weight ([1]; 10 mg/kg PO) [%]	other results
CCOP(=O)(OCC)C(CNc1nc(C)cc(Oc2ccc(Cl)cc2Cl)n1)P(=O)(OCC)OCC [(f), (2-((4-2,4-dichlorophenoxy-6-methyl-2-pyrimidinyl)amino)ethylidene)bisphosphonic acid tetraethyl ester]	39.7	45.9	
Cc1cc(Oc2ccc(Cl)cc2Cl)nc(N)n1 [Control, reference compound]			% Inhibition Mean SD (calcium channel activity) (calcium channel; 10^-5 M): 12%
Cc1cc(Oc2c(F)cccc2[N+](=O)[O-])nc(NCC(P2(=O)OCC(C)(C)CO2)P2(=O)OCC(C)(C)CO2)n1 [Ex. 17 (a), (2-((4-(2-fluoro-6-nitrophenoxy)-6-methyl-2-pyrimidinyl)amino)ethylidene)bis(2,2'-(5,5-dimethyl-2,2'-dioxide-1,3,2-dioxaphosphorphinane))]	39.0	47.9	
Cc1cc(Oc2ccc(F)cc2F)nc(NCC(P2(=O)OCC(C)(C)CO2)P2(=O)OCC(C)(C)CO2)n1 [Ex. 18 (b), (2-((4-(2,4-difluorophenoxy)-6-methyl-2-pyrimidinyl)amino)ethylidene)bis(2,2'-(5,5-dimethyl-2,2'-dioxide-1,3,2-dioxaphosphorphinane))]	58.3	70.6	
Cc1cc(Oc2ccc(Br)cc2Br)nc(NCC(P2(=O)OCC(C)(C)CO2)P2(=O)OCC(C)(C)CO2)n1 [Ex. 19 (d), (2-((4-(2-,4-dibromophenoxy)-6-methyl-2-pyrimidinyl)amino)ethylidene)bis(2,2'(5,5-dimethyl-2,2'-dioxide-1,3,2-dioxaphosphorphinane))]	25.0	12.1	
Cc1cc(Oc2ccc(C#N)cc2)nc(NCC(P2(=O)OCC(C)(C)CO2)P2(=O)OCC(C)(C)CO2)n1 [Ex. 20 (e), (2-((4-(4-cyanophenoxy)-6-methyl-2-pyrimidinyl)amino)ethylidene)bis(2,2'-(5,5-dimethyl-2,2'-dioxide-1,3,2-dioxaphosphorphinane))]	41.8	27.4	
Cc1cc(N2CCOCC2)nc(NCC(P2(=O)OCC(C)(C)CO2)P2(=O)OCC(C)(C)CO2)n1 [Ex. 21 (c), (2-((4-(4-morpholinyl)-6-methyl-2-pyrimidinyl)amino)ethylidene)bis(2,2'-(5,5-dimethyl-2,2'-dioxide-1,3,2-dioxaphosphorphinane))]	62.5	68.6	
CCOP(=O)(OCC)C(CNc1nc(C)cc(Oc2ccc(Cl)cc2Cl)n1)P(=O)(OCC)OCC [Ex. 25 (k), (2-((4-(2,4-dichlorophenoxy)-6-methyl-2-pyrimidinyl)amino)ethylidene)bisphosphonic acid, tetraethyl ester]			% Inhibition Dry Weight ([1]; 100 mg/kg, administered sc): 39.6%; % Inhibition Wet Weight ([1]; 100 mg/kg, administered sc): 40.5%; % Inhibition Mean SD (calcium channel activity) (calcium channel; 10^-5 M): 92 ± 5%; % Inhibition Mean SD (calcium channel activity) (calcium channel; 10^-6 M): 75 ± 9%; % Inhibition Mean SD (calcium channel activity) (calcium channel; 10^-7 M): 35 ± 19%
COc1cc(C)nc(NCC(P2(=O)OCC(C)(C)CO2)P2(=O)OCC(C)(C)CO2)n1 [Ex. 26 (l), (2((4-(methyl)-6-methoxy-2-pyrimidinyl)amino)ethylidene)bis(2,2'-(5,5-dimethyl-2,2'-dioxide-1,3,2-dioxaphosphorphine))]	44.8	41.9	
CCOP(C)(=O)C(CCc1nc(-c2ccccc2)cc(=O)n1C)P(=O)(OCC)OCC (stereo not drawn) [Example 16, 1-(Ethoxymethylphosphinyl)-3-(3-methyl-6-phenyl14(3H)-pyrimidinone-2-yl)-propane phosphonic acid diethyl ester]			DTH GRA percent inhibition ([1]; dose, route and wet/dry weight not given): 44.4%
